Data taken from patent US20130224223A1, “Compositions and Methods for Treating Neurological Disorders” (GEORGIA REGENTS UNIVERSITY, priority 2007, published 2013).

Target: T1, ErbB4 (Rattus norvegicus, UniProt Q62956)
T1 construct: cerebral cortex was dissected out of Sprague-Dawley rat embryos (E18) and dissociated; endogenous in cells; host or cells: primary rat (Sprague-Dawley) embryonic cortical neurons, DIV14, GAD65-positive
Assay: phospho-ErbB4 immunostaining in GAD65-positive cortical neurons
Assay type: cell-based
Conditions: pretreatment 10 min before 5 nM NRG1; AG1478/AG879 5 mM [sic]
Protocol: FIG. 4A is a bar graph showing quantitative analysis of phospho-ErbB4 (p-ErbB4) in GAD65-positive cortical neurons treated with ecto-ErbB4 for 10 min prior to the addition of NRG1 (5 nM, final concentration) for another 10 min. n=7, *p<0.05. FIG. 4B is a line graph of eIPSC amplitude (nA) versus time (min) for cortical slices treated with sequential addition of NRG1 (5 nM) and ecto-ErbB4 (1 μg/ml and 2 μg/ml) (all final concentrations). On the top are averaged traces before (a) and after (b) NRG1, and after different dosages of ecto-ErbB4 ([c] and [d], 1 and 2 μg/ml, respectively). […]
FIG. 5A is a bar graph of phospho-ErbB4 (p-ErbB4) in cortical neurons treated with 5 mM AG1478, an inhibitor of ErbB4, or AG879, an inhibitor of ErbB2, for 10 min prior to the addition of NRG1 (5 nM, final concentration). Neurons were fixed and stained with phospho-ErbB4 and GAD65 antibodies, and visualized with Alexa 594 and FITC-coupled secondary antibodies respectively, and quantified. […]

T1 sequence (Q62956 26-1308): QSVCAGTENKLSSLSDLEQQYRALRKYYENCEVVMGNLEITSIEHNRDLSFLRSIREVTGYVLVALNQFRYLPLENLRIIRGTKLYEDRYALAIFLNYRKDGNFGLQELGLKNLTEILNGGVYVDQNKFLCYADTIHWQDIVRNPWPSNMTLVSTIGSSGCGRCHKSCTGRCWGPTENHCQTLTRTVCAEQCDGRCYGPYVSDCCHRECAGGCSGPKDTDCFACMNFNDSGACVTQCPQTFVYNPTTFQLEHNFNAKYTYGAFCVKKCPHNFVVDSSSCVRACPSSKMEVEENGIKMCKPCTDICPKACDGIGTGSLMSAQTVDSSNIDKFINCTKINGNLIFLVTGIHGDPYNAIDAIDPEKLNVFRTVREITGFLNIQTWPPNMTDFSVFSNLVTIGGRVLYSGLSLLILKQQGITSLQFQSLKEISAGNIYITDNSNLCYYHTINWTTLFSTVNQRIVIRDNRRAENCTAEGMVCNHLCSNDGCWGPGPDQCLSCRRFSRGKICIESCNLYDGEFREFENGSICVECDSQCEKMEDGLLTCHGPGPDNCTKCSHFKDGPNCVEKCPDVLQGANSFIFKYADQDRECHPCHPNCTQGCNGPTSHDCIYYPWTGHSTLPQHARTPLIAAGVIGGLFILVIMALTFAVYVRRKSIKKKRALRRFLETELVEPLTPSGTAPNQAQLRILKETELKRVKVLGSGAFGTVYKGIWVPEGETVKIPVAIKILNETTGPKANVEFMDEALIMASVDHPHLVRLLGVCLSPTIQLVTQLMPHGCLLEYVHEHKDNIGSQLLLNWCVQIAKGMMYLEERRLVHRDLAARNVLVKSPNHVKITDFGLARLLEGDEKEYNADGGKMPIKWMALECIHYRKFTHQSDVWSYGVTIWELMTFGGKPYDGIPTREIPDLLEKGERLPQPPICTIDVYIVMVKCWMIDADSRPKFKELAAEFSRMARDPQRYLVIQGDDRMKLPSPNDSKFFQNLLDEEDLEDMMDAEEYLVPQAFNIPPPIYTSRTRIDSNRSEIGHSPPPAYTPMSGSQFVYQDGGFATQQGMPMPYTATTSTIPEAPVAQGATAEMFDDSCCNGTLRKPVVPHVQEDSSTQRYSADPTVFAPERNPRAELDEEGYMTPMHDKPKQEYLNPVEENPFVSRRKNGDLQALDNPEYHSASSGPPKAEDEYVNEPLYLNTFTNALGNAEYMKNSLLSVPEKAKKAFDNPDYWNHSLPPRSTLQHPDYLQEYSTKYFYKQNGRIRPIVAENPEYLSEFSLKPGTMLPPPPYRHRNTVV

COc1cc2ncnc(Nc3cccc(Cl)c3)c2cc1OC [AG1478]
NRG1 activation (tyrosine phosphorylation) of ErbB4: blocked
